Source: US9217163B2 (priority 2007, dated 2015)
Read-outs that look alike come from different tables or passages of the source.

Legend:
[1] = test system: Clostridium beijerinckii ATCC 10132; details: butanol 1.5% to 3.5%, 37° C., 144 h
Protocol: The tolerance was tested in both, the un-optimized AnS medium and optimized AnS medium. The bottles were inoculated with Clostridium beijerinckii ATCC 10132 After inoculation, the medium was incubated at 37° C. for 144 h and the OD at 600 nm was monitored at a regular interval of 12 h.

[2] = test system: biological systems; details: Jones and Wood, 1986; cited from earlier work

CCCCO [butanol, n-butanol]
butanol concentration tolerated (growth, OD 600 nm) ([1]; optimized AnS medium): ≤ 3.5%
butanol concentration tolerated (growth, OD 600 nm) ([1]; un-optimized AnS medium): up to 3.0%
concentration at which butanol is highly toxic to biological systems [2]: 2%
